Assay: method code SF, from PMID: 5081587

logP | SMILES
2.45 | O=NN(CCCl)C(=O)NC1C=CCCC1 (stereo not drawn)
-0.24 | CN(C)/N=N/c1nc[nH]c1C(N)=O
0.37 | O=NN(CCCl)C(=O)NC1CCC(=O)NC1=O (stereo not drawn)
2.73 | O=NN(CCCl)C(=O)NC1CCCCC1Cl (stereo not drawn)
2.07 | O=NN(CCCl)C(=O)NC1CCSCC1
2.98 | O=NN(CCCl)C(=O)NC1CC2CCC1C2 (stereo not drawn)
1.53 | O=NN(CCCl)C(=O)NCCCl
0.19 | O=NN(CCCl)C(=O)NC1CCS(=O)(=O)CC1
2.08 | O=NN(CCCl)C(=O)NC1CSCSC1
1.54 | O=NN(CCF)C(=O)NC1CSCSC1
1.43 | O=NN(CCF)C(=O)NC1CCSCC1

SMILES | logP
O=P1(N(CCCl)CCCl)NCCCO1 (stereo not drawn) | 0.63
O=NN(CCCl)C(=O)NC1CCCC1 | 2.19
